# Data reported in US20260357349A1, “METHODS OF IDENTIFYING AND TREATING CANCER” (Agency for Science, Technology and Research, priority 2022, published 2026).
# Assays:
# [1] = tested on: NF-κB target genes (786-O cells); assay: RT-qPCR of NF-κB target genes after NF-κB inhibitor, 786-O; type: cell-based, human; conditions: 0.006 μM bortezomib or 0.6 µM Bay 11-7085, 24 hours
# Description: Colony formation of parental (WT) or PBRM1 knockout (KO) 786-O cells expressing shRNA against non-targeting control (NC), RELA, or NFKB1 cultured with a) 10% or b) 2% serum. c) Gene expression changes of NF-κB target genes in 786-O cells treated with 0.006 μM bortezomib (BTZ) or 0.6 µM Bay 11-7085 for 24 hours (n=3 technical replicates). * p-value<0.05 (two-sided t-test). […] A positive log fold change refers to gain in bortezomib treatment over DMSO. g) Colony formation of 786-O isogenic cells and h) NCC432 isogenic cells treated with bortezomib for a week. Tumor formation of isogenic 786-O cells (i) and NCC432 cells (j) treated with PBS control or 0.5 mg/kg bortezomib (BTZ) in NSG mice. (n=10 tumors per group for 786-O, and n=16 tumors for NCC432 PBS EV group and 12 tumors for NCC432 PBS PBRM1 group and 14 tumors for both NCC432 EV and PBRM1 BTZ groups). Data are presented as mean values+/−SEM. k) Model for the study.
# RELA = assay: Total RELA protein level after bortezomib; type: cell-based, human; conditions: bortezomib treatment
# Description: Data are presented as median+/−25%. Lower whisker is smallest observation greater than or equal to 25% quantile-1.5*interquantile range (IQR). Upper whisker represents the largest observation less than or equal to 75%+1.5*IQR. Amount of normalized RELA protein in the c) input or d) co-immunoprecipitated with SMARCA4 from 3 independent runs. […]
# Cell lines were harvested with cold RIPA lysis buffer (50 mM Tris pH 8, 150 mM NaCl, 0.1% Triton X-100, 0.5% Sodium deoxycholate, 0.1% SDS) with protease inhibitors (Roche) on ice. […] Protein concentration was measured by Pierce BCA protein assay (Life Technologies). […]
# metastatic RCC = conditions: monotherapy, cited from earlier work
# [2] = phase II trial of 37 patients with metastatic RCC
compound,measurement,setting,value
CC(C)C[C@H](NC(=O)[C@H](Cc1ccccc1)NC(=O)c1cnccn1)B(O)O [bortezomib],suppressing the expression of NF-κB target genes,[1],effective at suppressing the expression of NF-κB target genes
same,effect on total protein levels of RELA,RELA,did not significantly affect
same,ranking of RCC response amongst solid tumors,metastatic RCC; literature survey of 32 trials,most responsive tumor type amongst all solid tumors
same,partial response,metastatic RCC; [2],4 patients
same,stable disease,metastatic RCC; [2],14 patients
